The values below are quoted from earlier work in US20170246163A1, “METHODS OF IMPROVING BALANCE, GAIT OR BOTH IN PATIENTS WITH NEUROLOGICAL DISEASE” (priority 2016, published 2017).

Read-outs that look alike come from different tables or passages of the source.

The subject of data set [1] is PD patients experiencing frequent falls. Conditions: crossover versus placebo, p<0.05.
Data set [2] relates to subjects with mild-to-moderate Alzheimer's disease. Conditions: 48 weeks.
Data set [3] relates to subjects with moderate Alzheimer's disease. Conditions: Phase 2.
The subject of data set [4] is patients with either PD, PD-MCI, or PDD. Conditions: 176 patients with PD, 12 months, p<0.01.

For the compound `COc1cc2c(cc1OC)C(=O)C(CC1CCN(Cc3ccccc3)CC1)C2` (stereo not drawn) [donepezil], the “falls reported while on treatment” value in data set [1] is listed as 0.13 falls/day. Besides, the “subjects who experienced falls” value in data set [2] (donepezil alone) and in data set [3] (donepezil alone) was 6% throughout.
On to `Fc1ccc2c(CCNCc3cccc(OCC(F)(F)C(F)F)c3)c[nH]c2c1` [idalopirdine], for which, in data set [3] (on top of donepezil), the “subjects who experienced falls” value is 2%.
In the case of `O=S(=O)(c1ccccc1)c1cnc2c(N3CCNCC3)cccc2c1` [intepirdine, 3-phenylsulfonyl-8-piperazinyl-1yl-quinoline], the “subjects who experienced falls” value in data set [2] (on top of donepezil) is recorded as 2%.
Take `CCN(C)C(=O)Oc1cccc([C@H](C)N(C)C)c1` [rivastigmine]: the “lowering of the incidence of falls relative to baseline” value in data set [4] was 50%.
